Results as given in patent US20190117624A1, “THERAPEUTIC AGENT FOR INFLAMMATORY BOWEL DISEASES” (DAIICHI SANKYO COMPANY, LIMITED, priority 2016, published 2019).

Test system: dextran sodium sulfate-induced ulcerative colitis in rats
Assay: Drug efficacy on dextran sodium sulfate-induced ulcerative colitis in rats (erosion area of the large intestinal mucosa)
Type: in vivo, rat
Settings: for erosion area / inhibition rate (erosion area): 14 days; for erosion area: DSS colitis rats, mean±standard error, control 330.3±15.4; for inhibition rate (erosion area): vs control group
Protocol: The test of drug efficacy of a TAFIa inhibitor on dextran sodium sulfate-induced ulcerative colitis in rats will be described below. This test was conducted by commissioning to NISSEI BILIS Co., Ltd.
A TAFIa inhibitor, (2S)-5-amino-2-{[1-(trans-4-methylcyclohexyl)-1H-imidazol-4-yl]methyl}valeric acid p-toluenesulfonate anhydride (hereinafter referred to as “compound A”) was dissolved in a 0.5% aqueous sodium carboxymethylcellulose solution (hereinafter referred to as “CMC-Na”) to prepare a dosing solution for oral administration of 0.6, 2, 6 and 20 mg/mL. The dosage was determined by conversion into a free form with a conversion factor of 0.6301. The chemical structure of compound A is as follows: […]
7-Week old male LEW/SsN Slc rats (Japan SLC, Inc.) were allowed to drink 3% dextran sodium sulfate (hereinafter referred to as “DSS”) freely to create ulcerative colitis models. Individuals meeting selection criteria for model animals shown in 1-3 below were selected followed by switching to free drinking of 1% aqueous DSS solution to maintain the ulcerative colitis models.
Thereafter, animals that met the selection criteria were selected.
The tests were conducted in two separate groups (the first half: 5 animals/group; the second half: 5 animals/group). The untreated individuals and the individuals meeting the above selection criteria were selected as adopted animals, and grouped into groups of 5 animals/group with the body weight as a main parameter and the hemoglobin concentration as a secondary parameter, according to stratified randomized assignment so as not to cause a difference in the average value among the groups (the total of two tests: 10 animals/group).
Administration route: Oral administration
Administration volume: 5 mL/kg
[…] Administration was conducted by masking the test groups (that is, individual identification numbers were recorded in the animal cards, and administration was conducted in a blinded manner). Note that the administration on the selection day (the first day of administration) was conducted only once in the afternoon.
Each of animals was fasted from the end of the final administration. On the day of dissection, approximately 3 mL of blood was collected from the abdominal aorta under anesthesia with pentobarbital sodium (30 mg/kg, i.p.) by using a polypropylene disposable syringe and an injection needle. Immediately after blood collection, the large intestine (the colon and the rectum) was isolated and immersed in physiological saline kept warm at approximately 37° C., and the length of the large intestine was measured in a relaxed state. Thereafter, a 10% neutral buffered formalin solution was infused into the large intestine, and the large intestine was immersed in physiological saline with the lumen expanded and temporarily fixed for 1 hour or more. After temporary fixation, the large intestine was dissected along the mesentery attachment site, immersed in a stretched state in a 10% neutral buffered formalin solution, and fixed for 1 week or more. The fixed large intestine specimen was washed with running water for approximately 5 minutes, further with distilled water three times, and then immersed in a 3% aqueous acetic acid solution for approximately 5 minutes as a pretreatment.
The large intestine specimen stained with a 1% Alcian blue solution was photographed. The photograph was captured on an image analysis device (general-purpose image processor WinROOF, Version 5.7, MITANI CORPORATION), and the area of deep blue part was measured. This measurement value was used as the erosion area.
The erosion area was expressed as mean±standard error. A significant difference test between the control group and each group was conducted by a homoscedasticity test (F-test) followed by Student's t test in the case of homoscedasticity and by Aspin-Welch's t test in the case of heteroscedasticity (significance level: 5%).

SMILES	erosion area (300 mg/kg orally once a day)	inhibition rate (erosion area) (300 mg/kg orally once a day)	erosion area compared to the control group (significance) (300 mg/kg orally once a day, Student's t test P<0.05)	erosion area compared to the control group (significance) (3 mg/kg orally twice a day)	erosion area (3 mg/kg orally twice a day)	inhibition rate (erosion area) (3 mg/kg orally twice a day)	erosion area (10 mg/kg orally twice a day)	inhibition rate (erosion area) (10 mg/kg orally twice a day)	erosion area compared to the control group (significance) (10 mg/kg orally twice a day, Student's t test P<0.05)	erosion area (30 mg/kg orally once a day)	inhibition rate (erosion area) (30 mg/kg orally once a day)	erosion area compared to the control group (significance) (30 mg/kg orally once a day, Student's t test P<0.01)	erosion area (30 mg/kg orally twice a day)	inhibition rate (erosion area) (30 mg/kg orally twice a day)	erosion area compared to the control group (significance) (30 mg/kg orally twice a day, Student's t test P<0.01)	erosion area (100 mg/kg orally twice a day)	inhibition rate (erosion area) (100 mg/kg orally twice a day)	erosion area compared to the control group (significance) (100 mg/kg orally twice a day, Student's t test P<0.01)	reduction effect of the erosion area (overall conclusion) (rat ulcerative colitis model)
O=C(O)c1cc(/N=N/c2ccc(S(=O)(=O)Nc3ccccn3)cc2)ccc1O [SASP, Salazosulfapyridine, reference compound]	261.6±22.7 mm^2	20.8%	significant reduction in the erosion area	–	–	–	–	–	–	–	–	–	–	–	–	–	–	–	–
C[C@H]1CC[C@H](n2cnc(C[C@H](CCCN)C(=O)O)c2)CC1.Cc1ccc(S(=O)(=O)O)cc1 [compound A, (2S)-5-amino-2-{[1-(trans-4-methylcyclohexyl)-1H-imidazol-4-yl]methyl}valeric acid p-toluenesulfonate anhydride]	–	–	–	No significant difference	291.8±13.1 mm^2	11.7%	281.6±11.1 mm^2	14.7%	significant reduction in the erosion area	264.0±7.9 mm^2	20.1%	significant reduction in the erosion area	262.89±13.9 mm^2	20.4%	significant reduction in the erosion area	261.9±12.7 mm^2	20.7%	significant reduction in the erosion area	significant reduction effect of the erosion area
